25 molecules from patent US20080234318A1, “Chemical Compounds” (priority 2005, published 2008) can be followed below.

For this assay, the system named is HIV-1. The assay can be described thus: HOS HIV-1 infectivity assay. It is filed as cell-based. Conditions: Human immunodeficiency virus 1, BAL / IIIB, HOS cells expressing hCXCR4/hCCR5/hCD4/pHIV-LTR-luciferase, virus strain (Ba-L or IIIB) not given, read-out: Activity Level. As to the method:
Compounds were profiled against two HIV-1 viruses, the M-tropic (CCR5 utilizing) Ba-L strain and the T-tropic (CXCR4 utilizing) IIIB strain. Both viruses were propagated in human peripheral blood lymphocytes. Compounds were tested for there ability to block infection of the HOS cell line (expressing hCXCR4/hCCR5/hCD4/pHIV-LTR-luciferase) by either HIV-1 Ba-L or HIV-1 IIIB. Compound cytotoxicity was also examined in the absence of virus addition.
HOS cells (expressing hCXCR4/hCCR5/hCD4/pHIV-LTR-luciferase) were harvested and diluted in Dulbeccos modified Eagles media supplemented with 2% FCS and non-essential amino acid to a concentration of 60,000 cells/ml. The cells were plated into 96-well plates (100 ul per well) and the plates were placed in a tissue culture incubator (37° C.; 5% CO2/95% air) for a period of 24h.
Subsequently, 50 ul of the desired drug solution (4 times the final concentration) was added to each well and the plates were returned to the tissue culture incubator (37° C.; 5% CO2/95% air) for 1h. Following this incubation 50 ul of diluted virus was added to each well (approximately 2 million RLU per well of virus). The plates were returned to the tissue culture incubator (37° C.; 5% CO2/95% air) and were incubated for a further 96h.
Following this incubation the endpoint for the virally infected cultures was quantified following addition of Steady-Glo Luciferase assay system reagent (Promega, Madison, Wis.). Cell viability or non-infected cultures was measured using a CellTiter-Glo luminescent cell viability assay system (Promega, Madison, Wis.). All luminescent readouts are performed on a Topcount luminescence detector (Packard, Meridien, Conn.).
As for `CN(C)Cc1c(CN(C)[C@H]2CCCc3cccnc32)nc2cccc(N3CCN(C)CC3)n12` [Example 10, (8S)—N-{[3-[(Dimethylamino)methyl]-5-(4-methyl-1-piperazinyl)imidazo[1,2-a]pyridin-2-yl]methyl}-N-methyl-5,6,7,8-tetrahydro-8-quinolinamine], the IC50 is below 0.1 µM. The figure for `CCN(CC)Cc1c(CN(C)[C@H]2CCCc3cccnc32)nc2cccc(N3CCN(C)CC3)n12` [Example 11, (8S)—N-{[3-[(Diethylamino)methyl]-5-(4-methyl-1-piperazinyl)imidazo[1,2-a]pyridin-2-yl]methyl}-N-methyl-5,6,7,8-tetrahydro-8-quinolinamine] is below 0.1 µM; for `CN1CCN(c2cccc3nc(CN(C)[C@H]4CCCc5cccnc54)c(CN4CCCC4)n23)CC1` [Example 12, (8S)—N-Methyl-N-{[5-(4-methyl-1-piperazinyl)-3-(1-pyrrolidinylmethyl)imidazo[1,2-a]pyridin-2-yl]methyl}-5,6,7,8-tetrahydro-8-quinolinamine] it is below 0.1 µM; for `CN1CCN(c2cccc3nc(CN(C)[C@H]4CCCc5cccnc54)c(CN(CCO)CCO)n23)CC1` [Example 13, 2,2′-({[5-(4-Methyl-1-piperazinyl)-2-({methyl[(8S)-5,6,7,8-tetrahydro-8-quinolinyl]amino}methyl)imidazo[1,2-a]pyridin-3-yl]methyl}imino)diethanol] it is below 0.1 µM. `CCN(CCO)Cc1c(CN(C)[C@H]2CCCc3cccnc32)nc2cccc(N3CCN(C)CC3)n12` [Example 14, 2-(Ethyl{[5-(4-methyl-1-piperazinyl)-2-({methyl[(8S)-5,6,7,8-tetrahydro-8-quinolinyl]amino}methyl)imidazo[1,2-a]pyridin-3-yl]methyl}amino)ethanol]: the IC50 was below 0.1 µM.

On to `CN1CCN(c2cccc3nc(CN(C)[C@H]4CCCc5cccnc54)c(CN4CCC(O)C4)n23)CC1` (stereo partly drawn) [Example 15, 1-{[5-(4-Methyl-1-piperazinyl)-2-({methyl[(8S)-5,6,7,8-tetrahydro-8-quinolinyl]amino}methyl)imidazo[1,2-a]pyridin-3-yl]methyl}-3-pyrrolidinol], for which the IC50 is below 0.1 µM. Under `CN1CCN(c2cccc3nc(CN(C)[C@H]4CCCc5cccnc54)c(CN4CCOCC4)n23)CC1` [Example 16, (8S)—N-Methyl-N-{[5-(4-methyl-1-piperazinyl)-3-(4-morpholinylmethyl)imidazo[1,2-a]pyridin-2-yl]methyl}-5,6,7,8-tetrahydro-8-quinolinamine] stands below 0.1 µM; under `CNCc1c(CN(C)[C@H]2CCCc3cccnc32)nc2cccc(N3CCN(C)CC3)n12` [Example 19, (8S)—N-Methyl-N-{[3-[(methylamino)methyl]-5-(4-methyl-1-piperazinyl)imidazo[1,2-a]pyridin-2-yl]methyl}-5,6,7,8-tetrahydro-8-quinolinamine], below 0.1 µM. The figure for `CCNCc1c(CN(C)[C@H]2CCCc3cccnc32)nc2cccc(N3CCN(C)CC3)n12` [Example 20, (8S)—N-{[3-[(Ethylamino)methyl]-5-(4-methyl-1-piperazinyl)imidazo[1,2-a]pyridin-2-yl]methyl}-N-methyl-5,6,7,8-tetrahydro-8-quinolinamine] is below 0.1 µM.

With `CN1CCN(Cc2c(CN(C)[C@H]3CCCc4cccnc43)nc3cccc(N4CCN(C)CC4)n23)CC1` [Example 21, (8S)—N-Methyl-N-({5-(4-methyl-1-piperazinyl)-3-[(4-methyl-1-piperazinyl)methyl]imidazo[1,2-a]pyridin-2-yl}methyl)-5,6,7,8-tetrahydro-8-quinolinamine], the IC50 is below 0.1 µM. Under `CN1CCN(c2cccc3nc(CN(C)[C@H]4CCCc5cccnc54)c(CN4CCCCC4)n23)CC1` [Example 22, (8S)—N-Methyl-N-{[5-(4-methyl-1-piperazinyl)-3-(1-piperidinylmethyl)imidazo[1,2-a]pyridin-2-yl]methyl}-5,6,7,8-tetrahydro-8-quinolinamine] stands below 0.1 µM; under `CC(C)NCc1c(CN(C)[C@H]2CCCc3cccnc32)nc2cccc(N3CCN(C)CC3)n12` [Example 23, (8S)—N-Methyl-N-{[3-{[(1-methylethyl)amino]methyl}-5-(4-methyl-1-piperazinyl)imidazo[1,2-a]pyridin-2-yl]methyl}-5,6,7,8-tetrahydro-8-quinolinamine], below 0.1 µM; under `CN1CCN(c2cccc3nc(CN(C)[C@H]4CCCc5cccnc54)c(CN)n23)CC1` [Example 24, (8S)—N-{[3-(Aminomethyl)-5-(4-methyl-1-piperazinyl)imidazo[1,2-a]pyridin-2-yl]methyl}-N-methyl-5,6,7,8-tetrahydro-8-quinolinamine], below 0.1 µM.

Regarding `CC(=O)NCc1c(CN(C)[C@H]2CCCc3cccnc32)nc2cccc(N3CCN(C)CC3)n12` [Example 25, N-{[5-(4-Methyl-1-piperazinyl)-2-({methyl[(8S)-5,6,7,8-tetrahydro-8-quinolinyl]amino}methyl)imidazo[1,2-a]pyridin-3-yl]methyl}acetamide], the IC50 is below 0.1 µM.

Consider `CCC(=O)NCc1c(CN(C)[C@H]2CCCc3cccnc32)nc2cccc(N3CCN(C)CC3)n12` [Example 26, N-{[5-(4-Methyl-1-piperazinyl)-2-({methyl[(8S)-5,6,7,8-tetrahydro-8-quinolinyl]amino}methyl)imidazo[1,2-a]pyridin-3-yl]methyl}propanamide], for which the IC50 is below 0.1 µM. Take `CC(C)C(=O)NCc1c(CN(C)[C@H]2CCCc3cccnc32)nc2cccc(N3CCN(C)CC3)n12` [Example 27, 2-Methyl-N-{[5-(4-methyl-1-piperazinyl)-2-({methyl[(8S)-5,6,7,8-tetrahydro-8-quinolinyl]amino}methyl)imidazo[1,2-a]pyridine-3-yl]methyl}propanamide]: the IC50 is below 0.1 µM. The figure for `CCC(C)C(=O)NCc1c(CN(C)[C@H]2CCCc3cccnc32)nc2cccc(N3CCN(C)CC3)n12` (stereo partly drawn) [Example 28, 2-Methyl-N-{[5-(4-methyl-1-piperazinyl)-2-({methyl[(8S)-5,6,7,8-tetrahydro-8-quinolinyl]amino}methyl)imidazo[1,2-a]pyridin-3-yl]methyl}butanamide] is below 0.1 µM; for `CN1CCN(c2cccc3nc(CN(C)[C@H]4CCCc5cccnc54)c(CNC(=O)c4ccccc4)n23)CC1` [Example 29, 2 N-{[5-(4-Methyl-1-piperazinyl)-2-({methyl[(8S)-5,6,7,8-tetrahydro-8-quinolinyl]amino}methyl)imidazo[1,2-a]pyridin-3-yl]methyl}benzamide] it is below 0.1 µM.

Regarding `CN1CCN(c2cccc3nc(CN(C)[C@H]4CCCc5cccnc54)c(CNC(=O)Cc4ccccc4)n23)CC1` [Example 30, N-{[5-(4-Methyl-1-piperazinyl)-2-({methyl[(8S)-5,6,7,8-tetrahydro-8-quinolinyl]amino}methyl)imidazo[1,2-a]pyridin-3-yl]methyl}-2-phenylacetamide], the IC50 was below 0.1 µM. Under `COC(=O)NCc1c(CN(C)[C@H]2CCCc3cccnc32)nc2cccc(N3CCN(C)CC3)n12` [Example 31, Methyl {[5-(4-methyl-1-piperazinyl)-2-({methyl[(8S)-5,6,7,8-tetrahydro-8-quinolinyl]amino}methyl)imidazo[1,2-a]pyridin-3-yl]methyl}carbamate] stands below 0.1 µM; under `CCOC(=O)NCc1c(CN(C)[C@H]2CCCc3cccnc32)nc2cccc(N3CCN(C)CC3)n12` [Example 32, Ethyl {[5-(4-methyl-1-piperazinyl)-2-({methyl[(8S)-5,6,7,8-tetrahydro-8-quinolinyl]amino}methyl)imidazo[1,2-a]pyridin-3-yl]methyl}carbamate], below 0.1 µM.

In the case of `CN1CCN(c2cccc3nc(CN(C)[C@H]4CCCc5cccnc54)c(CNC(=O)OCc4ccccc4)n23)CC1` [Example 33, Phenylmethyl {[5-(4-methyl-1-piperazinyl)-2-({methyl[(8S)-5,6,7,8-tetrahydro-8-quinolinyl]amino}methyl)imidazor[1,2-a]pyridin-3-yl]methyl}carbamate], the IC50 is below 0.1 µM.

As to `CN1CCN(c2cccc3nc(CN(C)[C@H]4CCCc5cccnc54)c(CNS(C)(=O)=O)n23)CC1` [Example 34, N-{[5-(4-Methyl-1-piperazinyl)-2-({methyl[(8S)-5,6,7,8-tetrahydro-8-quinolinyl]amino}methyl)imidazo[1,2-a]pyridine-3-yl]methyl}methanesulfonamide], the IC50 was below 0.1 µM. As for `CCS(=O)(=O)NCc1c(CN(C)[C@H]2CCCc3cccnc32)nc2cccc(N3CCN(C)CC3)n12` [Example 35, N-{[5-(4-Methyl-1-piperazinyl)-2-({methyl[(8S)-5,6,7,8-tetrahydro-8-quinolinyl]amino}methyl)imidazo[1,2-a]pyridin-3-yl]methyl}ethanesulfonamide], the IC50 is below 0.1 µM. The figure for `CC(C)S(=O)(=O)NCc1c(CN(C)[C@H]2CCCc3cccnc32)nc2cccc(N3CCN(C)CC3)n12` [Example 36, N-{[5-(4-Methyl-1-piperazinyl)-2-({methyl[(8S)-5,6,7,8-tetrahydro-8-quinolinyl]amino}methyl)imidazo[1,2-a]pyridin-3-yl]methyl}-2-propanesulfonamide] is below 0.1 µM.
